Patent US6888033B1, “Anti-viral compounds” (Cytoclonal Pharmaceutics, Inc., priority 1996, dated 2005)
Where two headings read alike, the source gives them in different places.

Tests used:
[1] = target: T1, HRV 3C protease (Human rhinovirus 1A, UniProt P23008); experiment: Inhibition of 3C protease cleavage activity, peptide cleavage assay with reverse phase HPLC; assay type: biochemical
T1 construct: 2.5 μg of HRV 3C protease
Procedure: Next, the inhibition of 3C protease activity was measured by using a cleavage assay. […] Specific cleavage of this peptide [(N-Ac)Arg-Ala-Glu-Leu-Gln-Gly-Pro-[…]-Asp-Glu] (SEQ ID NO:2) by HRV 3C provided two pentapeptides. In a typical experiment 80 μg of peptide, dissolved in 100 mM TRIS (pH 8) and 100 mM NaCl, was incubated at 35° C. with 2.5 μg of HRV 3C protease with and without DIF1, to give a total volume of 30 μl. In both cases 3C was suspended in a buffered solution (40 mM Tris-HCL, pH 8.0, 100 mM, NaCl, 1 mM DTT, 1 mM EDTA), 2.5 mg of DIF1 (dissolved in 1 ml of ethanol) was used, corresponding to a concentration of 270 μM. Inhibitory effects due to the organic solvent were not observed; nevertheless, 10 μl of ethanol were added to the control. Aliquots were drawn at short intervals (within ca. 40 min.) and quenched with an equal volume of 1% TFA in Methanol (HPLC grade). […]
The degree of 3C protease inhibition by DIF1 was found by integration of peak areas under the 280 nm absorption curve. The degree of cleavage was calculated as the ratio of peak areas corresponding to peptide alone and peptide plus GPYDE (SEQ ID NO:3) product. Quantification was based on the initial, linear portion of the absorption curve, which represents less than 20% cleavage.

[2] = target: T2, Recombinant HRV-1A 3C protease (Human rhinovirus 1A, UniProt P23008); experiment: HRV 3C Protease Inhibition Assay - HPLC Method; assay type: biochemical; conditions: Km value of 1.9 mM, overnight incubation
T2 construct: HRV-1A 3C protease was produced in E. Coli [BL21(DE3)pLysS] containing the protease gene; made in house; host or cells: E. coli BL21(DE3)pLysS, T7 expression vector
T2 sequence (P23008 1515-1697): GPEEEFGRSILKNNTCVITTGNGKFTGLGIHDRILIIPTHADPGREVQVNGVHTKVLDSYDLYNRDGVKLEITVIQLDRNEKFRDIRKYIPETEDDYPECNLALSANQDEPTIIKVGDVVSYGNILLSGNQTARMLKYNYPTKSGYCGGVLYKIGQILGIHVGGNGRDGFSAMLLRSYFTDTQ

[3] = tested on: elastase; experiment: Elastase cleavage activity (specificity); assay type: biochemical; conditions: 50 mM DIF1
Procedure: (§1) The specificity of DIF1 as an enzyme inhibitor was tested using cleavage assays for a number of other enzymes, including elastase, cathepsin B, chymotripsin, papain and ficin A. Elastase was particularly important because it is present in […], so that inhibition of its activity could potentially be highly toxic. […] The experimental method was as follows.
The cleavage activity of elastase was determined in 0.1 M Tris-HCl pH 7.0 buffer containing 20 μg/ml enzyme and its synthetic substrate. N-succinyl-Ala-Ala-Ala-p-nitroanilide.

[4] = target: cathepsin B (Homo sapiens, UniProt P07858); experiment: Cathepsin B cleavage activity (specificity); assay type: biochemical; conditions: all DIF1 concentrations tested
Procedure: as §1
(§2) The cleavage activity for cathepsin B was assayed according to the method of Bajowski an Frankfater (Anal. Biochem. 68:119 (1975)). Chymotripsin was assayed in 0.1M KPi buffer pH 7.0 containing 0.04 μg/ml enzyme and 200 μM N-benzyl-L-tryosine ethyl ester (from a 20 mM stock in dimethyl sulfoxide). The reaction was monitored by spectrophotometry at 256 nm.

[5] = target: chymotripsin (Bos taurus, UniProt P00766); experiment: Chymotripsin assay (specificity); assay type: biochemical; conditions: all DIF1 concentrations tested
Procedure: as §1, §2

[6] = target: T3, papain (Carica papaya, UniProt P00784); experiment: Papain assay (specificity); assay type: biochemical; conditions: all DIF1 concentrations tested
T3 sequence (P00784 134-345): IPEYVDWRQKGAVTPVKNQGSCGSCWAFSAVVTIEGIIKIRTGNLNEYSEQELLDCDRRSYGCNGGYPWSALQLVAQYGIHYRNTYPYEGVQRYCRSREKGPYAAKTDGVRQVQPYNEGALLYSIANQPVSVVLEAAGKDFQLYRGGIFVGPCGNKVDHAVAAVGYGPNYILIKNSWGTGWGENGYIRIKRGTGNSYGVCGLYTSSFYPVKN
Procedure: as §1
(§3) Papain and Ficin were incubated for one hour in an activation solution containing 0.1 M KPi buffer pH 7.0. 0.5 mM cysteine, 20 mM EDTA and 65 μg enzyme. The assays were carried out by adding 20 μl aliquots from the activation mix to 0.1 M KPi buffer pH 7.0, containing 12.5 nM N-CBZ-p-Nitrophenyl ester. The reaction was monitored by spectrphotometry at 405 nm.

[7] = tested on: ficin A; experiment: Ficin assay (specificity); assay type: biochemical; conditions: all DIF1 concentrations tested
Procedure: as §1, §3

[8] = tested on: human rhinovirus 14, strain 1059; experiment: Inhibition of virus in whole-cell assay (inhibition of cytopathic effect); assay type: cell-based
Procedure: H1-HeLa cells, obtained from ATCC (F-13824, 1958-CRL) were cultured in MEM (Minimum Essential Medium) supplemented with 10% heat-inactivated fetal calf serum (FCS) by incubation at 37° C, 5% CO2 (Biological Industry, Kibbuts Beit HaEmek, Israel).
96 well plates were seeded to 90% confluency. After 12-24 hrs of incubation, the cell's monolayer was washed with phosphate-buffered saline (PBS), and the cells were subsequently infected with ten-fold dilutions in PBS (log10) of human rhinovirus 14, strain 1059, obtained from ATCC.
For each concentration of compound, three rows of wells containing various dilutions of virus were used. After 1 h of incubation at room temperature, medium containing 3% FCS and various concentrations of compound to be tested was placed in the well. After 2 days incubation at 34° C, 5% CO2, the cells were fixed by 10% formaldehyde and stained with methylene blue to determine cell viability. The cytopathic effect of non-viable cells was arbitrarily set to 100% for the untreated viral infection, so that the effect of each compound on cell viability was determined according to this baseline. Each experiment was performed 5 times for each compound, and the inhibition of cytopathic effect (ICE50) for inhibition of viral activity was calculated. […] ICE50 refers to the concentration in which 50% of the cells remain viable after viral infection.

[9] = tested on: H1-HeLa cells; experiment: 50% toxic dose (TD50); assay type: cell-based

T1 sequence (P23008 1515-1697): as the sequence (P23008 1515-1697) above

CCCCCC(=O)c1c(O)c(Cl)c(OC)c(Cl)c1O [Compound 15, 1-(3,5-dichloro-2,6-dihydroxy-4-methoxyphenyl)-hexan-1-one]
Ki ([1]; HRV 3C protease, N-acetylated 10-mer peptide substrate, 35° C.): 220 µM | rate of substrate cleavage ([1]; in the presence of 270 μM DIF1): decreased significantly | Ki [2]: 460 ± 80 µM | inhibition of cleavage activity of elastase [3]: did not inhibit | effect on proteolytic activity of cathepsin B [4]: not to effect | effect on proteolytic activity of chymotripsin [5]: not to effect | effect on proteolytic activity of papain [6]: not to effect | effect on proteolytic activity of ficin A [7]: not to effect | IC50 ([8]; Rhinovirus B, H1-HeLa): 7.5 µM | TD50 [9]: 30

CCCCCC(=O)c1c(O)c(Cl)c(O)c(Cl)c1O [Compound 20]
Ki [2]: 460 ± 60 µM | TD50 [9]: 1875

CCCCCC(=O)c1c(O)c(Cl)c(O)c(Cl)c1OC [Compound 16, 1-(3,5-dichloro-2,4-dihydroxy-6-methoxyphenyl)-hexan-1-one]
Ki [2]: 390 ± 30 µM | IC50 ([8]; Rhinovirus B, H1-HeLa cells, HRV 14, Table 2, Formula V, read-out: IC50): 3 µM | TD50 [9]: 40

O=C1C=CC(=O)c2c(O)cccc21 [Compound 3, Juglone, reference compound]
Ki [2]: 630 ± 70 µM

COCCC(O)CC(O)C(=O)c1ccccc1 (stereo not drawn) [Compound 108, 2,4-dihydroxy-6-methoxyhexanophenone]
melting point: 109 °C

O=C(CCc1ccc(O)cc1)c1c(O)cc(O)cc1O [Formula VIII, Z′=OH, Y′=H, R3=OH, Y=H, phloretin]
TD50 [9]: 160

COc1cc(O)c(Cl)c(O)c1C(C)=O [Compound 25]
Ki [2]: 3000 ± 1500 µM | IC50 ([8]; Rhinovirus B, 48 h, H1-HeLa cells, HRV 14, 2 days at 34° C, Table 1, Formula IV, read-out: ICE50): 11 µM | TD50 ([9]; human): 22 µM | melting point: 187.5 to 189 °C

CC(=O)c1c(O)c(Cl)cc(Cl)c1O [Compound 109]
IC50 ([8]; H1-HeLa cells, HRV 14, 2 days at 34° C, Table 1, Formula IV, read-out: ICE50): 1250 µM | TD50 [9]: 5000 µM

COc1cc(O)cc(O)c1C(C)=O [Compound 23, 2,4-dihydroxy-6-methoxy acetophenone]
TD50 ([9]; Table 1, Formula IV): 220 µM

COc1ccc(C(=O)c2ccccc2O)c(O)c1 [Compound 1, Dioxybenzone, reference compound]
Ki [2]: 4700 ± 900 µM

COC(CCO)CC(O)C(=O)c1ccccc1 (stereo not drawn) [Compound 107, 2,6-dihydroxy-4-methoxyhexanophenone]
melting point: 121 °C
